Laboratory results reported in patent publication US20070082066A1, “Use of zeaxanthin to reduce light hyper-sensitivity, photophobia, and medical conditions relating to light hyper-sensitivity” (priority 2003, published 2007).

Columns and labels:
Format in all cases: in vivo, human
skin = assay: Indoor tests with medical-grade ultraviolet lamp, before-and-after minimal erythemal dosages; conditions: high-dosage zeaxanthin, winter season
From the text: (§1) Therefore, a patent application entitled “Protection Against Sunburn and Skin Problems with Orally-Ingested High-Dosage Zeaxanthin”, was drafted and filed in the autumn of 2002, as a provisional application, based on anecdotal evidence from several people. […] After those test data became available, the provisional patent application on sunburn prevention was expanded into a utility application.

light hyper-sensitivity = assay: Customer and user reports on light hyper-sensitivity after taking zeaxanthin
From the text: When asked about it by the Applicants herein, they offered answers that were usually along the lines of, “I hadn't noticed that. But yeah, you're right. I haven't been wearing my sunglasses as much as I used to. I just don't feel like I need them as much, or as often.”
At roughly the same time, the customer service specialist at ZeaVision also began to receive sporadic comments from people who had purchased zeaxanthin capsules to treat or prevent macular degeneration.
These discoveries led the customer support staff at ZeaVision to begin routinely asking customers about light hyper-sensitivity, if they called in and wanted to discuss the visual improvements they were enjoying after they began taking zeaxanthin.

sunburns = assay: Summertime exposure to direct sunlight, sunburn protection; conditions: oral, about 30 to about 80 mg/day, summer of 2002, direct sunlight
From the text: Instead, this discovery arose out of observations that were made while zeaxanthin was being tried and evaluated by a number of people, to determine whether it could help protect the skin against sunburns. Because of various factors and events described in a separate patent application (Ser. No. 10/356,134, Gierhart et al; the contents of that application are incorporated herein by reference, as though fully set forth herein), the founder of ZeaVision (who is also one of the Inventors herein) became convinced that relatively high dosages of zeaxanthin, in the range of about 30 mg or greater per day, could increase the skin's ability to withstand direct sunlight without suffering a sunburn. Accordingly, several coworkers began taking zeaxanthin at dosages in a range of about 30 to about 80 mg/day, during the summer of 2002, to provide additional evaluation of the earliest results that had been seen.
as §1

[1] = test system: migraine or other severe headaches; assay: Customer reports on frequency of migraine or other severe headaches; conditions: a number of customers with migraine or recurrent headaches; zeaxanthin at 10 mg or more per day
[2] = Safety and tolerability in users taking zeaxanthin for macular degeneration; conditions: 20 mg/day, thousands of users over the past few years
From the text: If no results are noticed at that level within about 2 to 4 weeks, the person can try a somewhat higher dosage during the next 2-4 weeks.

SMILES: CC1=C(/C=C/C(C)=C/C=C/C(C)=C/C=C/C=C(C)/C=C/C=C(C)/C=C/C2=C(C)C[C@@H](O)CC2(C)C)C(C)(C)C[C@H](O)C1 [zeaxanthin]
- skin-protective effects (minimal erythemal dosages before and after) (skin): strongly confirmed the skin-protective effects
- light hyper-sensitivity, volunteered consumer comments (light hyper-sensitivity; consumers who purchased zeaxanthin capsules to treat or prevent macular degeneration, after vs before taking): suffering less from light hyper-sensitivity
- use of sunglasses when driving or outdoors (light hyper-sensitivity; high-dosage zeaxanthin, several people working with ZeaVision, family members and friends, spring of 2003): had stopped using their sunglasses so much
- unusual and unpleasant levels of light sensitivity, routine customer questioning (light hyper-sensitivity; nearly all of the roughly 30% of customers who reported light sensitivity, after they began taking zeaxanthin capsules): less severe and less troubling
- light sensitivity evaluated separately from vision clarity (light hyper-sensitivity; nearly all patients who had reported increased light sensitivity, zeaxanthin at 10 mg or more per day): improved, significantly
- risk of sunburns (sunburns): can indeed reduce the risk of sunburns
- frequency of migraine or other severe headaches [1]: didn't seem to be having as many migraine or other severe headaches
- safety and tolerability [2]: safe and well-tolerated
